# Source: patent US20100041089A1, “IMPROVED METHOD FOR DETECTING CHEMICAL […]” (priority 2006, published 2010)
# System: yeast genes (expressed mRNA)
# Experiment: DNA chip measurement of expressed mRNA of yeast genes after culture with a toxic chemical substance
# Format: cell-based, Saccharomyces cerevisiae S288C
# How it was run: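 Two-hour exposure of growing S. cerevisiae S288C (YPD, 25° C) to a sublethal toxicant preceded RNA isolation. Fluorescent cDNA was hybridized to a whole-genome array; a treated-to-untreated signal ratio of two or more was taken as significant.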
smiles,measurement,setting,value
"CCCCC[C@H](O)CC(=O)CCc1ccc(O)c(OC)c1 [(13), Gingerol]",The level of expressed mRNA in the presence of chemical substance/The level of expressed mRNA in the absence of chemical substance,"yeast gene YKL065C, cultured two hours with substance",3.0
same,level of expressed mRNA in the presence of chemical substance / level in the absence of chemical substance,"yeast gene YKL097C, cultured two hours with the chemical substance",0.9
same,level of expressed mRNA in the presence of chemical substance / level in the absence of chemical substance,"yeast gene YKL100C, cultured two hours with the chemical substance",1.3
same,The level of expressed mRNA in the presence of chemical substance/The level of expressed mRNA in the absence of chemical substance,"yeast gene YKL153W, cultured two hours with substance",2.4
same,The level of expressed mRNA in the presence of chemical substance/The level of expressed mRNA in the absence of chemical substance,"yeast gene YKL194C, mitochondria-located protein gene, cultured two hours with substance",1.1
same,The level of expressed mRNA in the presence of chemical substance/The level of expressed mRNA in the absence of chemical substance,yeast gene YKL218C,5.1
same,The level of expressed mRNA in the presence of chemical substance/The level of expressed mRNA in the absence of chemical substance,"yeast gene YKR018C, cultured two hours with substance",3.0
same,level of expressed mRNA in the presence of chemical substance / level in the absence of chemical substance,"yeast gene YKR040C, cultured two hours with the chemical substance",0.6
same,The level of expressed mRNA in the presence of chemical substance/The level of expressed mRNA in the absence of chemical substance,"yeast gene YKR046C, cultured two hours with substance",2.8
same,The level of expressed mRNA in the presence of chemical substance/The level of expressed mRNA in the absence of chemical substance,"yeast gene YKR075C, cultured two hours with substance",3.8
same,The level of expressed mRNA in the presence of chemical substance/The level of expressed mRNA in the absence of chemical substance,"yeast gene YLL041C, mitochondria-located protein gene, cultured two hours with substance",1.0
same,The level of expressed mRNA in the presence of chemical substance/The level of expressed mRNA in the absence of chemical substance,"yeast gene YLR041W, cultured two hours with the chemical substance",0.3
same,The level of expressed mRNA in the presence of chemical substance/The level of expressed mRNA in the absence of chemical substance,"yeast gene YLR217W, cultured two hours with substance",3.8
same,level of expressed mRNA in the presence of chemical substance / level in the absence of chemical substance,"yeast gene YLR226W, cultured two hours with the chemical substance",0.7
same,level of expressed mRNA in the presence of chemical substance / level in the absence of chemical substance,"yeast gene YLR338W, cultured two hours with the chemical substance",1.2
same,The level of expressed mRNA in the presence of chemical substance/The level of expressed mRNA in the absence of chemical substance,yeast gene YLR340W,0.1
same,The level of expressed mRNA in the presence of chemical substance/The level of expressed mRNA in the absence of chemical substance,"yeast gene YLR350W, cultured two hours with substance",4.5
same,The level of expressed mRNA in the presence of chemical substance/The level of expressed mRNA in the absence of chemical substance,"yeast gene YLR387C, cultured two hours with substance",3.6
same,The level of expressed mRNA in the presence of chemical substance/The level of expressed mRNA in the absence of chemical substance,yeast gene YLR388W,0.1
same,level of expressed mRNA in the presence of chemical substance / level in the absence of chemical substance,"yeast gene YLR392C, cultured two hours with the chemical substance",1.4
same,level of expressed mRNA in the presence of chemical substance / level in the absence of chemical substance,"yeast gene YLR415C, cultured two hours with the chemical substance",1.0
same,level of expressed mRNA in the presence of chemical substance / level in the absence of chemical substance,"yeast gene YLR427W, cultured two hours with the chemical substance",2.5
same,level of expressed mRNA in the presence of chemical substance / level in the absence of chemical substance,"yeast gene YML013W, cultured two hours with the chemical substance",1.2
same,level of expressed mRNA in the presence of chemical substance / level in the absence of chemical substance,"yeast gene YML029W, cultured two hours with the chemical substance",2.0
same,level of expressed mRNA in the presence of chemical substance / level in the absence of chemical substance,"yeast gene YML041C, cultured two hours with the chemical substance",1.2
same,The level of expressed mRNA in the presence of chemical substance/The level of expressed mRNA in the absence of chemical substance,"yeast gene YML054C, cultured for two hours with substance",2.8
same,level of expressed mRNA in the presence of chemical substance / level in the absence of chemical substance,"yeast gene YML079W, cultured two hours with the chemical substance",1.6
same,The level of expressed mRNA in the presence of chemical substance/The level of expressed mRNA in the absence of chemical substance,"yeast gene YML100W, cultured for two hours with substance",3.8
same,level of expressed mRNA in the presence of chemical substance / level in the absence of chemical substance,"yeast gene YMR068W, cultured two hours with the chemical substance",1.4
same,level of expressed mRNA in the presence of chemical substance / level in the absence of chemical substance,"yeast gene YMR071C, cultured two hours with the chemical substance",1.3
same,The level of expressed mRNA in the presence of chemical substance/The level of expressed mRNA in the absence of chemical substance,"yeast gene YMR095C, cultured two hours with substance",3.4
same,level of expressed mRNA in the presence of chemical substance / level in the absence of chemical substance,"yeast gene YMR160W, cultured two hours with the chemical substance",1.6
same,The level of expressed mRNA in the presence of chemical substance/The level of expressed mRNA in the absence of chemical substance,"yeast gene YMR191W, cultured two hours with substance",3.4
same,The level of expressed mRNA in the presence of chemical substance/The level of expressed mRNA in the absence of chemical substance,"yeast gene YMR203W, mitochondria-located protein gene, cultured two hours with substance",1.1
same,The level of expressed mRNA in the presence of chemical substance/The level of expressed mRNA in the absence of chemical substance,"yeast gene YMR210W, cultured two hours with the chemical substance, DNA chip fluorescence ratio",1.0
same,level of expressed mRNA in the presence of chemical substance / level in the absence of chemical substance,"yeast gene YNL026W, cultured two hours with the chemical substance",1.7
same,level of expressed mRNA in the presence of chemical substance / level in the absence of chemical substance,"yeast gene YNL058C, cultured two hours with the chemical substance",0.6
same,level of expressed mRNA in the presence of chemical substance / level in the absence of chemical substance,"yeast gene YNL063W, cultured two hours with the chemical substance",1.5
same,The level of expressed mRNA in the presence of chemical substance/The level of expressed mRNA in the absence of chemical substance,yeast gene YNL069C,0.1
same,The level of expressed mRNA in the presence of chemical substance/The level of expressed mRNA in the absence of chemical substance,"yeast gene YNL115C, cultured two hours with substance",2.5
same,The level of expressed mRNA in the presence of chemical substance/The level of expressed mRNA in the absence of chemical substance,"yeast gene YNL155W, cultured two hours with substance",4.4
same,level of expressed mRNA in the presence of chemical substance / level in the absence of chemical substance,"yeast gene YNL176C, cultured two hours with the chemical substance",0.6
same,level of expressed mRNA in the presence of chemical substance / level in the absence of chemical substance,"yeast gene YNL194C, cultured two hours with the chemical substance",1.5
same,level of expressed mRNA in the presence of chemical substance / level in the absence of chemical substance,"yeast gene YNL200C, cultured two hours with the chemical substance",1.1
same,The level of expressed mRNA in the presence of chemical substance/The level of expressed mRNA in the absence of chemical substance,"yeast gene YNL208W, cultured two hours with substance",1.7
same,The level of expressed mRNA in the presence of chemical substance/The level of expressed mRNA in the absence of chemical substance,"yeast gene YNL234W, cultured two hours with substance",2.5
same,The level of expressed mRNA in the presence of chemical substance/The level of expressed mRNA in the absence of chemical substance,"yeast gene YNL241C, cultured for two hours with substance",4.9
same,level of expressed mRNA in the presence of chemical substance / level in the absence of chemical substance,"yeast gene YNL253W, cultured two hours with the chemical substance",1.1
same,level of expressed mRNA in the presence of chemical substance / level in the absence of chemical substance,"yeast gene YNL276C, cultured two hours with the chemical substance",1.5
same,level of expressed mRNA in the presence of chemical substance / level in the absence of chemical substance,"yeast gene YNR051C, cultured two hours with the chemical substance",2.1
same,level of expressed mRNA in the presence of chemical substance / level in the absence of chemical substance,"yeast gene YOL026C, cultured two hours with the chemical substance",1.2
same,The level of expressed mRNA in the presence of chemical substance/The level of expressed mRNA in the absence of chemical substance,"yeast gene YOL030W, cultured two hours with the chemical substance",1.7
same,The level of expressed mRNA in the presence of chemical substance/The level of expressed mRNA in the absence of chemical substance,"yeast gene YOL036W, cultured two hours with substance",2.5
same,The level of expressed mRNA in the presence of chemical substance/The level of expressed mRNA in the absence of chemical substance,yeast gene YOL039W,0.1
same,The level of expressed mRNA in the presence of chemical substance/The level of expressed mRNA in the absence of chemical substance,"yeast gene YOL084W, cultured two hours with substance",6.4
same,The level of expressed mRNA in the presence of chemical substance/The level of expressed mRNA in the absence of chemical substance,yeast gene YOL120C,0.1
same,level of expressed mRNA in the presence of chemical substance / level in the absence of chemical substance,"yeast gene YOR022C, cultured two hours with the chemical substance",1.7
same,level of expressed mRNA in the presence of chemical substance / level in the absence of chemical substance,"yeast gene YOR087W, cultured two hours with the chemical substance",1.2
same,level of expressed mRNA in the presence of chemical substance / level in the absence of chemical substance,"yeast gene YOR138C, cultured two hours with the chemical substance",1.8
same,The level of expressed mRNA in the presence of chemical substance/The level of expressed mRNA in the absence of chemical substance,"yeast gene YOR152C, cultured two hours with substance",7.4
same,The level of expressed mRNA in the presence of chemical substance/The level of expressed mRNA in the absence of chemical substance,yeast gene YOR153W,11.8
same,The level of expressed mRNA in the presence of chemical substance/The level of expressed mRNA in the absence of chemical substance,"yeast gene YOR173W, cultured two hours with substance",3.8
same,The level of expressed mRNA in the presence of chemical substance/The level of expressed mRNA in the absence of chemical substance,"yeast gene YOR187W, mitochondria-located protein gene, cultured two hours with substance",0.7
same,level of expressed mRNA in the presence of chemical substance / level in the absence of chemical substance,"yeast gene YOR253W, cultured two hours with the chemical substance",0.5
same,level of expressed mRNA in the presence of chemical substance / level in the absence of chemical substance,"yeast gene YOR267C, cultured two hours with the chemical substance",1.4
same,level of expressed mRNA in the presence of chemical substance / level in the absence of chemical substance,"yeast gene YOR325W, cultured two hours with the chemical substance",0.6
same,The level of expressed mRNA in the presence of chemical substance/The level of expressed mRNA in the absence of chemical substance,"yeast gene YOR382W, cultured two hours with substance",1.7
same,The level of expressed mRNA in the presence of chemical substance/The level of expressed mRNA in the absence of chemical substance,"yeast gene YOR385W, cultured two hours with the substance",2.8
same,level of expressed mRNA in the presence of chemical substance / level in the absence of chemical substance,"yeast gene YPL005W, cultured two hours with the chemical substance",1.2
same,The level of expressed mRNA in the presence of chemical substance/The level of expressed mRNA in the absence of chemical substance,"yeast gene YPL087W, cultured two hours with substance",4.4
same,level of expressed mRNA in the presence of chemical substance / level in the absence of chemical substance,"yeast gene YPL150W, cultured two hours with the chemical substance",2.1
same,level of expressed mRNA in the presence of chemical substance / level in the absence of chemical substance,"yeast gene YPL152W, cultured two hours with the chemical substance",1.4
same,level of expressed mRNA in the presence of chemical substance / level in the absence of chemical substance,"yeast gene YPL168W, cultured two hours with the chemical substance",1.0
same,level of expressed mRNA in the presence of chemical substance / level in the absence of chemical substance,"yeast gene YPL180W, cultured two hours with the chemical substance",1.5
same,level of expressed mRNA in the presence of chemical substance / level in the absence of chemical substance,"yeast gene YPL188W, cultured two hours with the chemical substance",0.9
same,level of expressed mRNA in the presence of chemical substance / level in the absence of chemical substance,"yeast gene YPL221W, cultured two hours with the chemical substance",1.0
same,The level of expressed mRNA in the presence of chemical substance/The level of expressed mRNA in the absence of chemical substance,"yeast gene YPL222W, cultured two hours with substance",3.0
same,level of expressed mRNA in the presence of chemical substance / level in the absence of chemical substance,"yeast gene YPL225W, cultured two hours with the chemical substance",0.8
same,The level of expressed mRNA in the presence of chemical substance/The level of expressed mRNA in the absence of chemical substance,"yeast gene YPR037C, mitochondria-located protein gene, cultured two hours with substance",1.0
same,level of expressed mRNA in the presence of chemical substance / level in the absence of chemical substance,"yeast gene YPR049C, cultured two hours with the chemical substance",1.6
same,The level of expressed mRNA in the presence of chemical substance/The level of expressed mRNA in the absence of chemical substance,"yeast gene YPR134W, mitochondria-located protein gene, cultured two hours with substance",1.1
same,level of expressed mRNA in the presence of chemical substance / level in the absence of chemical substance,"yeast gene YPR146C, cultured two hours with the chemical substance",1.3
same,level of expressed mRNA in the presence of chemical substance / level in the absence of chemical substance,"yeast gene YPR148C, cultured two hours with the chemical substance",1.2
same,level of expressed mRNA in the presence of chemical substance / level in the absence of chemical substance,"yeast gene YPR172W, cultured two hours with the chemical substance",1.3
